For this test, the target named is phosphorylated active hERK2 enzyme (Homo sapiens (Human), UniProt P28482).
[1] abbreviates: ERK2 IC50, IMAP-FP assay, 0.5 nM hERK2, 30 μM ATP, 10 point titration, 3 μM starting concentration.
Setting [2] is: read-out: ERK2 IC50, IMAP-FP assay, 0.5 nM hERK2, 30 μM ATP, 10 point titration, 3 μM starting concentration.

Like-named read-outs stand apart in the source and are kept apart here.

Chain of phosphorylated active hERK2 enzyme (P28482 whole entry): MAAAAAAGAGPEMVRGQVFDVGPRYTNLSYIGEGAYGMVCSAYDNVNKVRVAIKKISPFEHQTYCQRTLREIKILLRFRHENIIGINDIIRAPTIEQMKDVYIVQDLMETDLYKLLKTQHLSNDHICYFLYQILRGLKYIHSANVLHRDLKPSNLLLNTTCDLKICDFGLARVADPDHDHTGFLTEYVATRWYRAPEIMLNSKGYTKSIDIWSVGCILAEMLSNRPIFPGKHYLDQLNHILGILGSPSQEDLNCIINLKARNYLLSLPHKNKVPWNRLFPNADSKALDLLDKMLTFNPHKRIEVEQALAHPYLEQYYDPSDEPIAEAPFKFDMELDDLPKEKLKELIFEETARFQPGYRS
Procedure: Active Human ERK2 (hERK2) Activity Assay:
Activated ERK2 activity was determined in an IMAP-FP assay (Molecular Devices). […] The final reaction in each well of 25 μL consists of 0.5 nM hERK2, 900 nM unlabeled peptide, 80 nM labeled-peptide, and 30 μM ATP. Phosphorylation reactions were allowed to proceed for 60 minutes and were immediately quenched by the addition of 60 μL IMAP detection beads (1:1000 dilutions) in IMAP binding buffer (Molecular Devices) with 24 mM NaCl. Plates were read on EnVision reader after 60 minutes binding equilibration using Fluorescence Polarization protocol (Perkin Elmer).

As for `CO[C@H]1CCCC[C@@H]1NC(=O)Nc1cc2cnn(-c3ccnc(C)c3)c2cn1` (racemic) [Example 145, Racemic 1-[(1S,2S) and (1R,2R)-2-methoxycyclohexyl]-3-[1-(2-methylpyridin-4-yl)-1H-pyrazolo[3,4-c]pyridin-5-yl)urea], half-maximal inhibition (IC50) required 122 nM.

Compound `CCO[C@H]1CCCC[C@@H]1NC(=O)Nc1cc2cnn(-c3ccnc(C)c3)c2cn1` (racemic) [Example 146, Racemic 1-[(1S,2S) and (1R,2R)-2-ethoxycyclohexyl]-3-[1-(2-methylpyridin-4-yl)-1H-pyrazolo[3,4-c]pyridin-5-yl]urea] registered an IC50 of 180 nM. The same measure, in the same setting: the same measure for `CCO[C@H]1CCC[C@@H]1NC(=O)Nc1cc2cnn(-c3ccnc(C)c3)c2cn1` (racemic) [Example 147, Racemic 1-[(1S,2S) and (1R,2R)-2-ethoxycyclopentyl]-3-[1-(2-methylpyridin-4-yl)-1H-pyrazolo[3,4-c]pyridin-5-yl]urea]: 33.7 nM. Take `Cc1cc(-n2ncc3cc(NC(=O)N[C@H]4CCC[C@H]4c4ccccc4)ncc32)ccn1` (racemic) [Example 148, Racemic 1-[1-(2-methylpyridin-4-yl)-1H-pyrazolo[3,4-c]pyridin-5-yl]-3-[(1S,2S) and (1R, 2R)-2-phenylcyclopentyl]urea]: the IC50 is 7.93 nM. Take `Cc1cc(-n2ncc3cc(NC(=O)N[C@H]4CCCC[C@@H]4c4ccccc4)ncc32)ccn1` (racemic) [Example 151, Racemic trans 1-[1-(2-methylpyridin-4-yl)-1H-pyrazolo[3,4-c]pyridin-5-yl]-3-[(1S,2R) and (1R,2S)-2-phenylcyclohexyl]urea]: under setting [1], the IC50 is 3.65 nM. `Cc1cc(-n2ncc3cc(NC(=O)N[C@H]4CCCC[C@@H]4NC(=O)c4ccccc4)ncc32)ccn1` (racemic) [Example 152, Racemic Trans N-[(1S,2S) and (1R, 2R)-2-({[1-(2-methylpyridin-4-yl)-1H-pyrazolo[3,4-c]pyridin-5-yl]carbamoyl}amino)cyclo-hexy]benzamide] registered an IC50 of 711 nM.

`Cc1cc(-n2ncc3cc(NC(=O)N[C@H]4CCC[C@H]4c4ccc(F)cc4)ncc32)ccn1` (racemic) [Example 153, Racemic cis 1-[(1S,2S) and (1R,2R)-2-(4-fluorophenyl)cyclopentyl]-3-[1-(2-methylpyridin-4-yl)-1H-pyrazolo[3,4-c]pyridin-5-yl]urea] returned an IC50 of 42.3 nM. In the case of `Cc1cc(-n2ncc3cc(NC(=O)N[C@H]4CCC[C@@H]4Oc4ccc(F)cc4)ncc32)ccn1` (racemic) [Example 166, Racemic trans 1-[(1S,2S) and (1R,2R)-2-(4-fluorophenoxy)cyclopentyl]-3-[1-(2-methylpyridin-4-yl)-1H-pyrazolo[3,4-c]-pyridin-5-yl)urea], the IC50 was 66.6 nM. The compound `Cc1cc(-n2ncc3cc(NC(=O)N[C@H]4CCCC[C@H]4Cc4ccccc4)ncc32)ccn1` (racemic) [Example 167, Racemic cis 1-[(1S,2S) and (1R,2R)-2-benzylcyclohexyl]-3-[1-(2-methylpyridin-4-yl)-1H-pyrazolo[3,4-c]pyridin-5-yl)urea] yielded an IC50 of 23.1 nM. Still for that read-out and setting: the same measure for `Cc1cc(-n2ncc3cc(NC(=O)N[C@H]4CCC[C@@H]4c4ccccc4)ncc32)ccn1` (racemic) [Example 168, Racemic trans 1-[1-(2-methylpyridin-4-yl)-1H-pyrazolo[3,4-c]pyridin-5-yl]-3-[(1S,2R) and (1R,2S)-2-phenylcyclopentyl]urea]: 7.34 nM. Take `Cc1cc(-n2ncc3cc(NC(=O)N[C@H]4CCCC[C@@H]4c4ccccc4)ncc32)ccn1` (racemic) [Example 169, Racemic trans 1-[1-(2-methylpyridin-4-yl)-1H-pyrazolo[3,4-c]pyridin-5-yl]-3-[(1S,2R) and (1R,2S)-2-phenylcyclohexyl]urea]: the IC50 under setting [1] worked out at 65.7 nM. In the case of `Cc1cc(-n2ncc3cc(NC(=O)N[C@H]4CCCC[C@H]4c4ccc(F)cc4)ncc32)ccn1` (racemic) [Example 174, Racemic cis 1-[(1S,2S) and (1R,2R)-2-(4-fluorophenyl)cyclohexyl]-3-[1-(2-methylpyridin-4-yl)-1H-pyrazolo[3,4-c]pyridin-5-yl]urea], the IC50 stood at 19.1 nM. Turning to `Cc1cc(-n2ncc3cc(NC(=O)N[C@H]4CN(C)C[C@@H]4c4ccccc4C)ncc32)ccn1` (single isomer, unassigned) [Example 36, 1-[(3R,4S) or (3S, 4R)-1-methyl-4-(2-methylphenyl)pyrrolidin-3-yl]-3-[1-(2-methylpyridin-4-yl)-1H-pyrazolo[3,4-c]pyridin-5-yl)urea], under setting [2], the IC50 stood at 0.83 nM. As for `CO[C@H]1CN(Cc2c(F)cccc2F)C[C@@H]1NC(=O)Nc1cc2cnn(-c3ccnc(C)c3)c2cn1` (single isomer, unassigned) [Example 273, 1-[(3S,4S) or (3R, 4R)-1-(2,6-difluorobenzyl)-4-methoxypyrrolidin-3-yl]-3-[1-(2-methylpyridin-4-yl)-1H-pyrazolo[3,4-c]pyridin-5-yl]urea], under setting [2], the IC50 came out at 2060 nM.

In the case of `CO[C@H]1CN(Cc2c(F)cccc2F)C[C@@H]1NC(=O)Nc1cc2cnn(-c3ccnc(C)c3)c2cn1` (single isomer, unassigned) [Example 274, 1-[(3R,4R) or (3S, 4S)-1-(2,6-difluorobenzyl)-4-methoxypyrrolidin-3-yl]-3-[1-(2-methylpyridin-4-yl)-1H-pyrazolo[3,4-c]pyridin-5-yl]urea], the IC50 under setting [2] worked out at 3.54 nM. The same measure, in the same setting: the same measure for `O=C(NCc1ccc(F)cc1)Nc1cc2cnn(-c3ccc(F)cc3)c2cn1` [Example 1, 1-(4-fluorobenzyl)-3-(1-(4-fluorophenyl)-1H-pyrazolo[3,4-c]pyridin-5-yl)urea]: 26 nM; for `O=C(NCc1ccccc1)Nc1cc2cnn(-c3ccncc3)c2cn1` [Example 2, 1-benzyl-3-(1-pyridin-4-yl-1H-pyrazolo[3,4-c]pyridin-5-yl)urea]: 2.7 nM; for `C[C@@H](NC(=O)Nc1cc2cnn(-c3ccc(F)cc3)c2cn1)c1ccc(F)cc1` [Example 3, 1-[(1R)-1-(4-fluorophenyl)ethyl]-3-[1-(4-fluorophenyl)-1H-pyrazolo[3,4-c]pyridin-5-yl)urea]: 10.6 nM. `Cn1cc(-n2ncc3cc(NC(=O)NCc4ccc(F)cc4)ncc32)cn1` [Example 4, 1-(4-fluorobenzyl)-3-[1-(1-methyl-1H-pyrazol-4-yl)-1H-pyrazolo[3,4-c]pyridin-5-yl)urea]: under setting [2], the IC50 came out at 41.3 nM. As for `C[C@@H](NC(=O)Nc1cc2cnn(-c3cnn(C)c3)c2cn1)c1ccc(F)cc1` [Example 5, 1-[(1R)-1-(4-fluorophenyl)ethyl]-3-[1-(1-methyl-1H-pyrazol-4-yl)-1H-pyrazolo[3,4-c]pyridin-5-yl)urea], the IC50 under setting [2] was found to be 12.2 nM.

For the compound `O=C(NCc1ccc(F)cc1)Nc1cc2cnn(-c3ccncc3)c2cn1` [Example 6, 1-(4-fluorobenzyl)-3-(1-pyridin-4-yl-1H-pyrazolo[3,4-c]pyridin-5-yl)urea], under setting [2], the 50% inhibitory concentration (IC50) was 1.8 nM. On the same count and under the same terms, the value for `C[C@@H](NC(=O)Nc1cc2cnn(-c3ccncc3)c2cn1)c1ccc(F)cc1` [Example 7, 1-[(1R)-1-(4-fluorophenyl)ethyl]-3-(1-pyridin-4-yl-1H-pyrazolo[3,4-c]pyridin-5-yl)urea] was 16.2 nM; that for `O=C(NCCc1ccccc1)Nc1cc2cnn(-c3ccncc3)c2cn1` [Example 8, 1-(2-phenylethyl)-3-(1-pyridin-4-yl-1H-pyrazolo[3,4-c]pyridin-5-yl)urea] was 16.2 nM; that for `COc1ccc(CNC(=O)Nc2cc3cnn(-c4ccncc4)c3cn2)cc1` [Example 9, 1-(4-methoxybenzyl)-3-(1-pyridin-4-yl-1H-pyrazolo[3,4-c]pyridin-5-yl)urea] was 5.3 nM. With `O=C(Nc1cc2cnn(-c3ccncc3)c2cn1)NC1CCCc2ccccc21` (centres unmarked) [Example 10, 1-(1-pyridin-4-yl-1H-pyrazolo[3,4-c]pyridin-5-yl)-3-(1,2,3,4-tetrahydronaphthalen-1-yl)urea], the IC50 under setting [2] is 34.7 nM.

Turning to `O=C(NCc1ccc(Cl)cc1Cl)Nc1cc2cnn(-c3ccncc3)c2cn1` [Example 11, 1-(2,4-dichlorobenzyl)-3-(1-pyridin-4-yl-1H-pyrazolo[3,4-c]pyridin-5-yl)urea], under setting [2], the IC50 stood at 26 nM. On the same count and under the same terms, the value for `O=C(NCc1ccc(Cl)c(Cl)c1)Nc1cc2cnn(-c3ccncc3)c2cn1` [Example 12, 1-(3,4-dichlorobenzyl)-3-(1-pyridin-4-yl-1H-pyrazolo[3,4-c]pyridin-5-yl)urea] was 0.9 nM; that for `O=C(NCc1ccc(Cl)c(Cl)c1)Nc1cc2cnn(-c3ccc(F)cc3)c2cn1` [Example 13, 1-(3,4-dichlorobenzyl)-3-[1-(4-fluorophenyl)-1H-pyrazolo[3,4-c]pyridin-5-yl]urea] was 19.7 nM. For the compound `Cc1cc(-n2ncc3cc(NC(=O)NCCN(C)C)ncc32)ccn1` [Example 15, 1-(2-(dimethylamino)ethyl)-3-(1-(2-methylpyridin-4-yl)-1H-pyrazolo[3,4-c]pyridin-5-yl)urea], the IC50 under setting [2] was 1430 nM. `Cc1cc(-n2ncc3cc(NC(=O)N[C@H]4CN(C)C[C@@H]4c4ccccc4Cl)ncc32)ccn1` [Example 16, 1-[(3R,4S)-4-(2-chlorophenyl)-1-methylpyrrolidin-3-yl]-3-[1-(2-methylpyridin-4-yl)-1H-pyrazolo[3,4-c]pyridin-5-yl]urea]: the IC50 under setting [2] was determined as 0.952 nM. On the same count and under the same terms, the value for `Cc1cc(-n2ncc3cc(NC(=O)N[C@H]4COC[C@@H]4c4ccccc4)ncc32)ccn1` [Example 17, 1-[1-(2-methylpyridin-4-yl)-1H-pyrazolo[3,4-c]pyridin-5-yl]-3-[(3R,4R)-4-phenyltetrahydrofuran-3-yl]urea] was 1.83 nM; that for `Cc1cc(-n2ncc3cc(NC(=O)N[C@H]4CN(C)C[C@@H]4c4ccc(F)c(Cl)c4)ncc32)ccn1` [Example 18, 1-[(3R,4S)-4-(3-chloro-4-fluorophenyl)-1-methylpyrrolidin-3-yl]-3-[1-(2-methylpyridin-4-yl)-1H-pyrazolo[3,4-c]pyridin-5-yl)urea] was 2.14 nM.

As usually defined, the IC50 is the concentration that gives 50% inhibition.

Values taken from patent US9884048B2, “ERK inhibitors” (Merck Sharp & Dohme Corp., priority 2014, dated 2018).
